Test results taken from patent publication US8088746B2, “Bis-modified bicyclic nucleic acid analogs” (Isis Pharmaceuticals, Inc., priority 2006, dated 2012).
Strand notation (5' to 3'): a small letter for the sugar, then the base; units joined by * are phosphorothioate-linked, units joined directly phosphodiester-linked; [ ] holds rarer units or linkages, { } end groups; capitals alone tell only the bases. [cMOE-R-N] = 6-(R)-CH2-O-CH3 BNA nucleoside (4'-CH(CH2OCH3)-O-2' bridge, R configuration) (N: the base); [6'R-Me-BNA] = 6-(R)-CH3 bicyclic nucleoside (R-constrained ethyl); [5'S-Me-BNA] = 5'-(S)-CH3 4'-CH2-O-2' bicyclic nucleoside; [6'S-cMOE] = 6-(S)-CH2-O-CH3 bicyclic nucleoside; e = 2'-O-(2-methoxyethyl) (MOE); l = locked nucleic acid (LNA); k = constrained ethyl (cEt); v = modified nucleoside v; [5mC] = 5-methylcytosine; d = 2'-deoxy (DNA)

Assays:
PTEN [1] = assay: 2-14-2 gapped oligomers targeted to PTEN (Example 42), in vivo single injection, liver mRNA; settings: for % UTC: liver mRNA, 72 hrs
PTEN [2] = assay: 2-14-2 gapped oligomers targeted to PTEN (Example 50), in vivo single injection, liver mRNA; settings: 72 hrs
RNA complement = assay: Tm by melting against RNA complement (Example 51); settings: 18 mers, melting against the RNA 20 mer (131566), 14 base complementary region
PTEN [3] = assay: 5′-vinyl and LNA gapped oligomers targeted to PTEN (Example 51), in vivo single injection, liver mRNA; settings: 64 hrs; for PTEN % UTC: 18 mers, liver mRNA; for ED50: PTEN liver mRNA
[4] = injected once 60 mg/kg (last dose column)
[5] = injected once, second dose column, printed 60 mg/kg

ISIS NO. 394420: MeCeTeGCTAGCCTCTGGATTeTe; 2′-O-MOE 2-14-2 gapped oligomer targeted to PTEN (CTGCTAGCCTCTGGATTT; sugars from the 5' end e2 d14 e2, [5mC] at 1, backbone not given here) [reference compound]
% UTC (PTEN [1]; injected once 2 μmol/kg): 79%
% UTC (PTEN [1]; injected once 10 μmol/kg): 26%
% UTC (PTEN [2]; injected once 2 μmol/kg): 79%
% UTC (PTEN [2]; injected once 10 μmol/kg): 26%

ISIS NO. 394425: MeClTlGCTAGCCTCTGGATTlTl; 4′-CH2-O-2′ BNA 2-14-2 gapped oligomer targeted to PTEN (CTGCTAGCCTCTGGATTT; sugars from the 5' end l2 d14 l2, [5mC] at 1, backbone not given here) [reference compound]
Tm (RNA complement): 61.6 °C
% UTC (PTEN [1]; injected once 2 μmol/kg): 11%
% UTC (PTEN [1]; injected once 10 μmol/kg): 2.1%
PTEN % UTC (PTEN [3]; injected once 1.9 mg/kg): 100%
PTEN % UTC (PTEN [3]; injected once 19 mg/kg): 8%
PTEN % UTC (PTEN [3]; [4]): 4%
PTEN % UTC (PTEN [3]; [5]): 35%
ED50 (PTEN [3]; injected once): 4.4 mg/kg

ISIS NO. 400521: CSUSGCTAGCCTCTGGATUSUS; 5′-(S)-CH3 BNA 2-14-2 gapped oligomer targeted to PTEN (CUGCTAGCCTCTGGATUU; sugars from the 5' end [5'S-Me-BNA]2 d14 [5'S-Me-BNA]2, backbone and methylation of C not given here)
efficacy, comparison in words (PTEN [1]; high dose group (10 micromole/Kg)): essentially equally efficacious as 394425
% UTC (PTEN [1]; injected once 2 μmol/kg): 21.4%
% UTC (PTEN [1]; injected once 10 μmol/kg): 3.8%

ISIS NO. 400522: CRURGCTAGCCTCTGGATURUR; 6-(R)-CH3 BNA 2-14-2 gapped oligomer targeted to PTEN (CUGCTAGCCTCTGGATUU; sugars from the 5' end [6'R-Me-BNA]2 d14 [6'R-Me-BNA]2, backbone and methylation of C not given here)
% UTC (PTEN [2]; injected once 2 μmol/kg): 18%
% UTC (PTEN [2]; injected once 10 μmol/kg): 4%

ISIS NO. 400523: CSUSGCTAGCCTCTGGATUSUS; 6-(S)-CH3 BNA 2-14-2 gapped oligomer targeted to PTEN (CUGCTAGCCTCTGGATUU; sugars from the 5' end k2 d14 k2, backbone and methylation of C not given here)
% UTC (PTEN [2]; injected once 2 μmol/kg): 17%
% UTC (PTEN [2]; injected once 10 μmol/kg): 4%

ISIS NO. 400524: CRURGCTAGCCTCTGGATURUR; 6-(R)-CH2-O-CH3 BNA 2-14-2 gapped oligomer targeted to PTEN ([cMOE-R-C]*[cMOE-R-U]*dG*dC*dT*dA*dG*dC*dC*dT*dC*dT*dG*dG*dA*dT*[cMOE-R-U]*[cMOE-R-U]; antisense)
% UTC (PTEN [2]; injected once 2 μmol/kg): 23%
% UTC (PTEN [2]; injected once 10 μmol/kg): 4%

ISIS NO. 400525: CSUSGCTAGCCTCTGGATUSUS; 6-(S)-CH2-O-CH3 BNA 2-14-2 gapped oligomer targeted to PTEN (CUGCTAGCCTCTGGATUU; sugars from the 5' end [6'S-cMOE]2 d14 [6'S-cMOE]2, backbone and methylation of C not given here)
% UTC (PTEN [2]; injected once 2 μmol/kg): 21%
% UTC (PTEN [2]; injected once 10 μmol/kg): 3%

ISIS NO. 411027: CvUvGCTAGCCTCTGGATUvUv; 18 mer gapped oligomer targeted to PTEN, subscript v nucleoside illustrated in a drawing (CUGCTAGCCTCTGGATUU; sugars from the 5' end v2 d14 v2, backbone and methylation of C not given here; further chemistry not fully specified)
Tm (RNA complement): 59.9 °C
PTEN % UTC (PTEN [3]; injected once 1.9 mg/kg): 89%
PTEN % UTC (PTEN [3]; injected once 19 mg/kg): 24%
PTEN % UTC (PTEN [3]; [4]): 7%
PTEN % UTC (PTEN [3]; [5]): 61%
ED50 (PTEN [3]; injected once): 7.4 mg/kg
